Data from the NIST ThermoML archive (doi:10.1016/j.jct.2007.09.009).

Columns and labels:
[1] = 298.15 K; 101.33 kPa; Liquid; Pycnometric method
[2] = refractive index (Na D-line) (dimensionless); details: 298.15 K; 101.33 kPa; Liquid; Standard Abbe refractometry
[3] = xn = mol fraction of the nth substance listed; details: 313.15 K, 101 kPa, Liquid, Direct dilatometry

CC(=O)N(C)C [N,N-dimethylethanamide]
Details | mass density [kg/m3] | refractive index
[1] | 922.4 | –
[2] | – | 1.43556

CO [methanol]
Details | mass density [kg/m3] | refractive index
[1] | 772.2 | –
[2] | – | 1.32645

CC(=O)N(C)C [N,N-dimethylethanamide] + CCO
[3]
Details | excess molar volume [m3/mol]
x1 = 0.0259 | -3.74e-08
x1 = 0.0456 | -6.13e-08
x1 = 0.0769 | -9.86e-08
x1 = 0.103 | -1.237e-07
x1 = 0.1481 | -1.61e-07
x1 = 0.1765 | -1.787e-07
x1 = 0.2149 | -1.991e-07
x1 = 0.2587 | -2.157e-07
x1 = 0.2846 | -2.228e-07
x1 = 0.3094 | -2.282e-07
x1 = 0.3288 | -2.315e-07
x1 = 0.3513 | -2.338e-07
x1 = 0.3784 | -2.352e-07
x1 = 0.3866 | -2.374e-07
x1 = 0.4014 | -2.353e-07
x1 = 0.4131 | -2.373e-07
x1 = 0.4396 | -2.356e-07
x1 = 0.4661 | -2.327e-07
x1 = 0.4937 | -2.292e-07
x1 = 0.5249 | -2.227e-07
x1 = 0.5532 | -2.161e-07
x1 = 0.5913 | -2.059e-07
x1 = 0.6379 | -1.906e-07
x1 = 0.6743 | -1.761e-07
x1 = 0.7191 | -1.593e-07
x1 = 0.7691 | -1.359e-07
x1 = 0.8211 | -1.109e-07
x1 = 0.8768 | -7.86e-08
x1 = 0.9287 | -4.6e-08
x1 = 0.962 | -2.56e-08

CCO [ethanol]
Details | mass density [kg/m3] | refractive index
[1] | 772.2 | –
[2] | – | 1.3592

CC(=O)N(C)C [N,N-dimethylethanamide] + CO
[3]
Details | excess molar volume [m3/mol]
x1 = 0.0166 | -5.83e-08
x1 = 0.0295 | -9.34e-08
x1 = 0.0344 | -1.106e-07
x1 = 0.0508 | -1.501e-07
x1 = 0.0623 | -1.832e-07
x1 = 0.0717 | -2.034e-07
x1 = 0.0953 | -2.561e-07
x1 = 0.0979 | -2.653e-07
x1 = 0.1263 | -3.178e-07
x1 = 0.1366 | -3.395e-07
x1 = 0.169 | -3.878e-07
x1 = 0.1692 | -3.91e-07
x1 = 0.1997 | -4.315e-07
x1 = 0.2025 | -4.324e-07
x1 = 0.228 | -4.611e-07
x1 = 0.2317 | -4.661e-07
x1 = 0.2533 | -4.845e-07
x1 = 0.2599 | -4.913e-07
x1 = 0.2804 | -5.069e-07
x1 = 0.2837 | -5.077e-07
x1 = 0.3079 | -5.225e-07
x1 = 0.308 | -5.222e-07
x1 = 0.3093 | -5.264e-07
x1 = 0.3243 | -5.305e-07
x1 = 0.3406 | -5.399e-07
x1 = 0.3748 | -5.488e-07
x1 = 0.4031 | -5.518e-07
x1 = 0.4372 | -5.508e-07
x1 = 0.4807 | -5.416e-07
x1 = 0.5265 | -5.238e-07
x1 = 0.5817 | -4.921e-07
x1 = 0.5988 | -4.766e-07
x1 = 0.6131 | -4.66e-07
x1 = 0.6318 | -4.516e-07
x1 = 0.6362 | -4.516e-07
x1 = 0.6489 | -4.37e-07
x1 = 0.6633 | -4.244e-07
x1 = 0.6702 | -4.188e-07
x1 = 0.6938 | -3.98e-07
x1 = 0.6957 | -3.938e-07
x1 = 0.6975 | -3.923e-07
x1 = 0.7225 | -3.669e-07
x1 = 0.7286 | -3.606e-07
x1 = 0.7471 | -3.413e-07
x1 = 0.752 | -3.354e-07
x1 = 0.7584 | -3.295e-07
x1 = 0.7813 | -3.022e-07
x1 = 0.7951 | -2.867e-07
x1 = 0.8055 | -2.731e-07
x1 = 0.8278 | -2.456e-07
x1 = 0.83 | -2.444e-07
x1 = 0.8417 | -2.295e-07
x1 = 0.8584 | -2.065e-07
x1 = 0.8746 | -1.858e-07
x1 = 0.8862 | -1.705e-07
x1 = 0.9051 | -1.481e-07
x1 = 0.9081 | -1.406e-07
x1 = 0.9134 | -1.337e-07
x1 = 0.9384 | -9.87e-08
x1 = 0.943 | -9.15e-08
x1 = 0.9698 | -5.42e-08
x1 = 0.9711 | -5.33e-08
